Reference: ChEMBL document CHEMBL3785014, “A Binding Site on IL-17A for Inhibitory Macrocycles Revealed by Hydrogen/Deuterium Exchange Mass Spectrometry” (J Med Chem, 2016)
The source made the active and inactive calls. The rule behind the calls is not given here.

What was measured:
[1] = biological target: Interleukin-17A (Homo sapiens) (UniProt Q16552); assay: Binding affinity to recombinant human IL-17A assessed as increase in deuterium uptake at 100 to 116 residues at 10 uM after 10 to 3600 secs by HDX-MS
[2] = biological target: Interleukin-17A (Homo sapiens) (UniProt Q16552); assay: Binding affinity to recombinant human IL-17A assessed as protection from deuterium uptake at 92 to 99 residues at 10 uM after 10 to 3600 secs by HDX-MS
[3] = biological target: Interleukin-17A (Homo sapiens) (UniProt Q16552); assay: Binding affinity to recombinant human IL-17A assessed as protection from deuterium uptake at 92 to 101 residues at 10 uM after 10 to 3600 secs by HDX-MS
[4] = biological target: Interleukin-17A (Homo sapiens) (UniProt Q16552); assay: Binding affinity to recombinant human IL-17A assessed as protection from deuterium uptake at 58 to 72 residues at 10 uM after 10 to 3600 secs by HDX-MS
[5] = biological target: Interleukin-17A (Homo sapiens) (UniProt Q16552); assay: Binding affinity to recombinant human IL-17A assessed as protection from deuterium uptake at 58 to 71 residues at 10 uM after 10 to 3600 secs by HDX-MS
[6] = biological target: Interleukin-17A (Homo sapiens) (UniProt Q16552); assay: Binding affinity to recombinant human IL-17A assessed as increase in deuterium uptake at 102 to 120 residues at 10 uM after 10 to 3600 secs by HDX-MS
[7] = biological target: Interleukin-17A (Homo sapiens) (UniProt Q16552); assay: Binding affinity to recombinant human IL-17A assessed as protection from deuterium uptake at 90 to 101 residues at 10 uM after 10 to 3600 secs by HDX-MS
[8] = biological target: Interleukin-17A (Homo sapiens) (UniProt Q16552); assay: Binding affinity to recombinant human IL-17A assessed as increase in deuterium uptake at 102 to 116 residues at 10 uM after 10 to 3600 secs by HDX-MS
[9] = biological target: Interleukin-17A (Homo sapiens) (UniProt Q16552); assay: Binding affinity to recombinant human IL-17A assessed as increase in deuterium uptake at 104 to 116 residues at 10 uM after 10 to 3600 secs by HDX-MS
[10] = biological target: Interleukin-17A (Homo sapiens) (UniProt Q16552); assay: Binding affinity to recombinant human IL-17A assessed as protection from deuterium uptake at 99 to 103 residues at 10 uM after 10 to 3600 secs by HDX-MS
[11] = biological target: Interleukin-17A (Homo sapiens) (UniProt Q16552); assay: Binding affinity to recombinant human IL-17A assessed as increase in deuterium uptake at 103 to 114 residues at 10 uM after 10 to 3600 secs by HDX-MS

Chain of Interleukin-17A (Homo sapiens) (Q16552 whole entry, the tested form may be a part): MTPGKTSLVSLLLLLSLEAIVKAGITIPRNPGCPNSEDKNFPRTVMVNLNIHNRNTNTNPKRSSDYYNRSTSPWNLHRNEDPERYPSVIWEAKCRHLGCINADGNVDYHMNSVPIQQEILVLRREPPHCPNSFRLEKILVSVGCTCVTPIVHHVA

| Activity [1] | Activity [2] | Activity [3] | Activity [4] | Activity [5] | Activity [6] | Activity [7] | Activity [8] | Activity [9] | Activity [10] | Activity [11] | Structure (SMILES) |
| --- | --- | --- | --- | --- | --- | --- | --- | --- | --- | --- | --- |
| Active | Active | Active | Active | Active | Active | Active | Active | Active | Active | Active | O=C1CNC(=O)[C@@H](Cc2ccc(NC(=O)[C@H](Cc3ccccc3Cl)NC(=O)Cc3ccccc3)cc2)NC(=O)CC2(CCCC2)CC(=O)NCCCCCN1 |
| Active | Active | Active | Active | Active | Active | Active | Active | Active | Active | Active | O=C1CNC(=O)[C@@H](Cc2ccc(NC(=O)[C@H](Cc3ccccc3Cl)NC(=O)Cc3ccccc3)cc2)NC(=O)CC2(CCCC2)CC(=O)N[C@H](C(=O)O)CCCCN1 |
| Active | Active | Active | Active | Active | Active | Active | Active | Active | Active | Active | O=C1CC2(CCCC2)CC(=O)N[C@H](Cc2ccc(NC(=O)[C@H](Cc3ccccc3Cl)NC(=O)Cc3cccc(O)c3)cc2)C(=O)NCCOCCOCCN1 |
